What was measured:
Type in all cases: in vivo
[1] = tested on: Housefly [Musca domestica]; experiment: Housefly contact mortality in dishes (HF), 48 hours; settings: μg of test compound per 25 female flies
Outline: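 Acetone solutions (with 0.01% peanut oil) dried onto dish bottoms, then 25 female flies, 1-2 days old, caged over the residue with sugar water. Mortality scored at 48 hours; LC50 from dosage-mortality curves, in μg per 25 female flies, top level 100 μg.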

[2] = tested on: Black Bean Aphid [Aphis fabae (Scop.)]; experiment: Black bean aphid spray test on nasturtium (BBA), 48 hours; settings: percent of test compound in sprayed solution
Outline: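 LC50, given as percent test compound in the sprayed liquid, was calculated from dosage-mortality curves using concentrations from 0.05% downward. Sprays in 50:50 acetone-water went to runoff on ~5 cm nasturtiums carrying 25-50 aphids of mixed ages, one day after infestation. Deaths were counted 48 h later under greenhouse conditions.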

[3] = tested on: Tobacco Budworm [Heliothis virescens (Fabricius)] eggs; experiment: Tobacco budworm eggs (TBW-E); settings: percent in solution; 2-day old eggs
Outline: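 Paper-towel patches of 2-day-old eggs dipped in acetone solutions of compound (0.1% downward), held on larval rearing medium at 78° F. Mortality scored once all control eggs had hatched and larvae were feeding; LC50 from dosage-mortality curves, expressed as percent compound in solution.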

[4] = tested on: Cabbage Looper [Trichoplusia ni (Hubner)]; experiment: Cabbage looper leaf dip (CL), 3-5 days; settings: percent in solution, second-instar larvae
Outline: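 Squash cotyledons dipped 2-3 s in compound in 50-50 acetone-water, dried, then infested with 5 second-instar larvae and held at high humidity. Mortality scored after 3-5 days at concentrations from 0.1% downward. LC50 from dosage-mortality curves, expressed as percent compound in solution.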

[5] = tested on: Maize weevil [Sitophilus zeamais (Motschulsky)]; experiment: Maize weevil on dipped corn seeds (MW), 48 hours; settings: percent in solution, adult weevils
Experimental: The compounds in Tables 1 and 2 above were tested for insecticidal activity using the following testing procedures. LC50 values, based on the results of these tests and calculated according to dosage-mortality curves, are expressed in Table 3.
Maize weevil [Sitophilus zeamais (Motschulsky)]:
Test compounds were diluted in a 50:50 acetone:water solution. Four corn seeds [Zea mays (L.)] which had been immersed in test solutions for 2-3 seconds and allowed to dry were placed in containers together with 10 adult weevils. The containers were covered and kept at a temperature of about 25° C. Mortality was recorded after 48 hours. Test concentrations ranged from 0.01% down to that at which 50% mortality occurred. The LC50 values are expressed below in Table 3 under the heading "MW" in terms of percent of the test compound in solution.

Cc1cc(N=C(OCc2ccc(F)c(Oc3ccc(Cl)cc3)c2)C(C)C)ccc1F [Compound 399]
LC50 HF [1]: < 100 µg
LC50 BBA [2]: 0.0003%
LC50 TBW E (eggs) [3]: 0.025%
LC50 CL [4]: 0.0012%
LC50 MW [5]: > 0.01%

Cc1cc(N=C(OCc2ccc(F)c(Oc3ccccc3)c2)C(C)C)ccc1F [Compound 400]
LC50 HF [1]: < 100 µg
LC50 BBA [2]: 0.0003%
LC50 TBW E (eggs) [3]: 0.025%
LC50 CL [4]: 0.0007%
LC50 MW [5]: > 0.01%

Cc1cccc(N=C(OCc2ccc(F)c(Oc3ccc(Cl)cc3)c2)C(C)C)c1 [Compound 401]
LC50 HF [1]: < 100 µg
LC50 BBA [2]: 0.0006%
LC50 TBW E (eggs) [3]: 0.04%
LC50 CL [4]: 0.0017%
LC50 MW [5]: > 0.01%

Cc1ccc(N=C(OCc2cccc(Oc3ccc(F)cc3)c2)C(C)C)cc1Cl [Compound 402]
LC50 HF [1]: < 100 µg
LC50 BBA [2]: 0.0006%
LC50 TBW E (eggs) [3]: > 0.1%
LC50 CL [4]: > 0.1%
LC50 MW [5]: > 0.01%

Cc1ccc(N=C(OCc2cccc(Oc3ccc(Cl)cc3)c2)C(C)C)cc1Cl [Compound 403]
LC50 HF [1]: < 100 µg
LC50 BBA [2]: 0.001%
LC50 TBW E (eggs) [3]: > 0.1%
LC50 CL [4]: > 0.1%
LC50 MW [5]: > 0.01%

Cc1ccc(N=C(OCc2ccc(F)c(Oc3ccc(Cl)cc3)c2)C(C)C)cc1Cl [Compound 404]
LC50 HF [1]: < 100 µg
LC50 BBA [2]: 0.002%
LC50 TBW E (eggs) [3]: 0.025%
LC50 CL [4]: > 0.1%
LC50 MW [5]: > 0.01%

Cc1cccc(N=C(OCc2cccc(Oc3ccc(F)cc3)c2)C(C)C)c1 [Compound 405]
LC50 HF [1]: < 100 µg
LC50 BBA [2]: 0.0025%
LC50 TBW E (eggs) [3]: > 0.1%
LC50 CL [4]: > 0.1%
LC50 MW [5]: > 0.01%

Cc1ccc(N=C(OCc2ccc(F)c(Oc3ccc(Cl)cc3)c2)C(C)C)cc1C [Compound 406]
LC50 HF [1]: < 100 µg
LC50 BBA [2]: 0.001%
LC50 TBW E (eggs) [3]: < 0.1%
LC50 CL [4]: > 0.1%
LC50 MW [5]: > 0.01%

Cc1cc(N=C(OCc2ccc(F)c(Oc3ccc(Cl)cc3)c2)C(C)C)ccc1Br [Compound 407]
LC50 HF [1]: > 100 µg
LC50 BBA [2]: 0.0007%
LC50 TBW E (eggs) [3]: 0.05%
LC50 CL [4]: > 0.1%
LC50 MW [5]: > 0.01%

COc1ccc(N=C(OCc2ccc(F)c(Oc3ccc(F)cc3)c2)C(C)C)cc1Cl [Compound 408]
LC50 HF [1]: < 100 µg
LC50 BBA [2]: 0.0005%
LC50 TBW E (eggs) [3]: 0.02%
LC50 CL [4]: 0.0015%
LC50 MW [5]: > 0.01%

COc1ccc(N=C(OCc2ccc(F)c(Oc3ccccc3)c2)C(C)C)cc1Cl [Compound 409]
LC50 HF [1]: < 100 µg
LC50 BBA [2]: 0.0005%
LC50 TBW E (eggs) [3]: 0.025%
LC50 CL [4]: 0.0017%
LC50 MW [5]: > 0.01%

COc1ccc(N=C(OCc2ccc(F)c(Oc3ccc(Cl)cc3)c2)C(C)C)cc1Cl [Compound 410]
LC50 HF [1]: < 100 µg
LC50 BBA [2]: 0.0025%
LC50 TBW E (eggs) [3]: > 0.1%
LC50 CL [4]: > 0.1%
LC50 MW [5]: > 0.01%

CCc1ccccc1N=C(OCc1cccc(Oc2ccc(F)cc2)c1)C(C)C [Compound 411]
LC50 HF [1]: < 100 µg
LC50 BBA [2]: > 0.05%
LC50 TBW E (eggs) [3]: > 0.1%
LC50 CL [4]: > 0.1%
LC50 MW [5]: > 0.01%

COc1ccc(N=C(OCc2ccc(F)c(Oc3ccc(Cl)cc3)c2)C(C)C)cc1 [Compound 412]
LC50 HF [1]: < 100 µg
LC50 BBA [2]: 0.0032%
LC50 TBW E (eggs) [3]: > 0.1%
LC50 CL [4]: > 0.1%
LC50 MW [5]: > 0.01%

CC(C)C(=Nc1ccc(F)c(I)c1)OCc1cccc(Oc2ccc(Cl)cc2)c1 [Compound 413]
LC50 HF [1]: < 100 µg
LC50 BBA [2]: > 0.05%
LC50 TBW E (eggs) [3]: 0.04%
LC50 CL [4]: 0.0007%
LC50 MW [5]: > 0.01%

CC(C)C(=Nc1ccc(S(C)(=O)=O)cc1)OCc1ccc(F)c(Oc2ccc(F)cc2)c1 [Compound 414]
LC50 HF [1]: < 100 µg
LC50 BBA [2]: > 0.05%
LC50 TBW E (eggs) [3]: > 0.1%
LC50 CL [4]: 0.0024%
LC50 MW [5]: > 0.01%

C=C(C)C(=Nc1ccc(F)c(Cl)c1)OCc1ccc(F)c(Oc2ccc(Cl)cc2)c1 [Compound 415]
LC50 HF [1]: < 100 µg
LC50 BBA [2]: 0.0007%
LC50 TBW E (eggs) [3]: 0.035%
LC50 CL [4]: 0.00075%
LC50 MW [5]: > 0.01%

C=C(C)C(=Nc1ccc(F)c(Cl)c1)OCc1ccc(F)c(Oc2ccccc2)c1 [Compound 416]
LC50 HF [1]: < 100 µg
LC50 BBA [2]: 0.0035%
LC50 TBW E (eggs) [3]: 0.018%
LC50 CL [4]: 0.00027%
LC50 MW [5]: > 0.01%

C=C(C)C(=Nc1ccc(F)c(Cl)c1)OCc1cccc(Oc2ccccc2)c1 [Compound 417]
LC50 HF [1]: < 100 µg
LC50 BBA [2]: 0.004%
LC50 TBW E (eggs) [3]: 0.04%
LC50 CL [4]: 0.0008%
LC50 MW [5]: > 0.01%

CC(C)C(=Nc1ccc(OCC(F)(F)F)c(Cl)c1)OCc1cccc(Oc2ccc(F)cc2)c1 [Compound 420]
LC50 HF [1]: > 100 µg
LC50 BBA [2]: 0.004%
LC50 TBW E (eggs) [3]: 0.05%
LC50 CL [4]: 0.00075%
LC50 MW [5]: > 0.01%

CC(C)C(=Nc1ccc(OCC(F)(F)F)c(Cl)c1)OCc1cccc(Oc2ccc(Cl)cc2)c1 [Compound 421]
LC50 HF [1]: > 100 µg
LC50 BBA [2]: > 0.05%
LC50 TBW E (eggs) [3]: < 0.1%
LC50 CL [4]: 0.002%
LC50 MW [5]: > 0.01%

CC(C)C(=Nc1ccc(OCC(F)(F)F)cc1)OCc1ccc(F)c(Oc2ccccc2)c1 [Compound 422]
LC50 HF [1]: < 100 µg
LC50 BBA [2]: > 0.05%
LC50 TBW E (eggs) [3]: 0.05%
LC50 CL [4]: 0.00075%
LC50 MW [5]: > 0.01%

CC(C)C(=Nc1ccc(OCC(F)(F)F)cc1)OCc1cccc(Oc2ccccc2)c1 [Compound 423]
LC50 HF [1]: > 100 µg
LC50 BBA [2]: > 0.05%
LC50 TBW E (eggs) [3]: > 0.1%
LC50 CL [4]: 0.002%
LC50 MW [5]: > 0.01%

CC(C)C(=Nc1ccc(OCC(F)(F)F)c(Cl)c1)OCc1ccc(F)c(Oc2ccccc2)c1 [Compound 424]
LC50 HF [1]: > 100 µg
LC50 BBA [2]: 0.002%
LC50 TBW E (eggs) [3]: 0.035%
LC50 CL [4]: 0.00038%
LC50 MW [5]: > 0.01%

CC(C)C(=Nc1ccc(OCC(F)(F)F)c(Cl)c1)OCc1cccc(Oc2ccccc2)c1 [Compound 425]
LC50 HF [1]: > 100 µg
LC50 BBA [2]: 0.0035%
LC50 TBW E (eggs) [3]: > 0.1%
LC50 CL [4]: 0.00075%
LC50 MW [5]: > 0.01%

CCOc1cccc(N=C(OCc2ccc(F)c(Oc3ccc(F)cc3)c2)C(C)C)c1 [Compound 426]
LC50 HF [1]: > 100 µg
LC50 BBA [2]: 0.0012%
LC50 TBW E (eggs) [3]: > 0.1%
LC50 CL [4]: 0.002%
LC50 MW [5]: > 0.01%

CC(C)C(=Nc1ccc(C(F)(F)F)cc1Cl)OCc1cccc(Oc2ccc(F)cc2)c1 [Compound 427]
LC50 HF [1]: > 100 µg
LC50 BBA [2]: 0.05%
LC50 TBW E (eggs) [3]: > 0.1%
LC50 CL [4]: < 0.1%
LC50 MW [5]: > 0.01%

CC(C)C(=Nc1ccc(C(F)(F)F)cc1Cl)OCc1ccc(F)c(Oc2ccccc2)c1 [Compound 428]
LC50 HF [1]: > 100 µg
LC50 BBA [2]: 0.003%
LC50 TBW E (eggs) [3]: > 0.1%
LC50 CL [4]: 0.0017%
LC50 MW [5]: > 0.01%

CC(C)C(=Nc1ccc(OCC(F)(F)F)c(F)c1)OCc1cccc(Oc2ccc(Cl)cc2)c1 [Compound 429]
LC50 HF [1]: > 100 µg
LC50 BBA [2]: 0.005%
LC50 TBW E (eggs) [3]: < 0.1%
LC50 CL [4]: 0.0017%
LC50 MW [5]: > 0.01%

C=C(C)C(=Nc1ccc(C(F)(F)F)cc1)OCc1cccc(Oc2ccccc2)c1 [Compound 430]
LC50 HF [1]: < 100 µg
LC50 BBA [2]: 0.0006%
LC50 TBW E (eggs) [3]: 0.032%
LC50 CL [4]: 0.001%
LC50 MW [5]: 0.004%

CC(C)C(=Nc1ccc(C(F)(F)F)c(Br)c1)OCc1ccc(F)c(Oc2ccccc2)c1 [Compound 434]
LC50 HF [1]: < 100 µg
LC50 BBA [2]: 0.003%
LC50 TBW E (eggs) [3]: > 0.1%
LC50 CL [4]: 0.0017%
LC50 MW [5]: 0.009%

COc1ccc(N=C(OCc2ccc(F)c(Oc3ccccc3)c2)C(C)C)cc1F [Compound 435]
LC50 HF [1]: < 100 µg
LC50 BBA [2]: 0.001%
LC50 TBW E (eggs) [3]: 0.04%
LC50 CL [4]: 0.002%
LC50 MW [5]: > 0.01%

CC(C)C(=Nc1cccc(OC(F)(F)F)c1)OCc1ccc(F)c(Oc2ccccc2)c1 [Compound 437]
LC50 HF [1]: < 100 µg
LC50 BBA [2]: 0.0003%
LC50 TBW E (eggs) [3]: 0.025%
LC50 CL [4]: 0.00075%
LC50 MW [5]: > 0.01%

— patent US5045566A, “Novel imidate insecticides” (ICI Americas Inc., priority 1989, dated 1991)
